Results taken from US20240158440A1, “PEPTIDE AND COMPOSITION CONTAINING PEPTIDE AS ACTIVE INGREDIENT” (MORINAGA MILK INDUSTRY CO., LTD., priority 2021, published 2024).
No end group written: not given here.

Columns and labels:
Type in all cases: in vivo
male ddy mice [1] = assay: Elevated plus maze test
Text: An elevated plus maze having a plus shape in which two flat plates (arms) of 25 cm×5 cm were crossed was placed at a height of 50 cm from the floor. One type of the arms is closed arms having transparent walls with a height of 15 cm, and a mouse can walk safely without fear of falling. The other arms are open arms without such walls, and the sides are open. […] Through anxiolytic treatment of a mouse, however, the time of stay in the open arms tends to be longer. Thus, in a confirmation test of an anxiolytic action, the anxiolytic activity becomes higher as the time of stay of a mouse in the open arms is longer or as the number of entries is higher. […]
The peptide NLPPLT synthesized in Production Example 2 was administered at a dose of 3 μg or 10 μg per 1 kg body weight to male ddy mice 30 minutes before the test, and 30 minutes later, each mouse was put on the central platform where the open arms crossed the closed arms to conduct the test (peptide NLPPLT administration group, n=6). For five minutes after starting, the total time of stay of the mouse on the open arms (time in open arms), the number of entries into the open arms (visit to open arms) and the total number of entries into the arms (total visits) were recorded.
Moreover, as a control, the same test was conducted using male ddy mice to which the peptide as the test substance was not administered (control group, n=6).
Furthermore, to examine the mechanism of action, the same test was conducted using male ddy mice to which 10 mg/kg of an antagonist of the serotonin 5-HT1A receptor, WAY100135 (manufactured by Tocris Bioscience) was orally administered in addition to 10 μg/kg body weight of the peptide NLPPLT synthesized in Production Example 2 (peptide NLPPLT+serotonin antagonist administration group, n=5).
From the obtained results, the proportions (%) of the time of stay on the open arms and the proportions (%) of the number of entries into the open arms were calculated as indicators of the anxiolytic activity, and the differences with a statistical significance were examined by the Tukey-Kramer method.

male ddy mice [2] = assay: Open field test; details: for Proportion (%) of Time of Stay in Center Circle / Proportion (%) of Number of Entries into Center Circle: 30 minutes before the test; for Proportion (%) of Time of Stay in Center Circle: control 0.3; for Proportion (%) of Number of Entries into Center Circle: control 1.5
Description: An open field test was conducted as a behavior test used for screening an antianxiety drug. […] […] Here, in this open field test, a circular field consisting of a plurality of concentric circles with a common center with different radii was used. The circle closest to the center in the field is considered as the center of the field, and the time in which a mouse placed in the center of the field stays in the center of the field is measured.
The peptide NLPPLT synthesized in Production Example 2 was administered at a dose of 10 μg, 30 μg or 100 μg per 1 kg body weight to male ddy mice 30 minutes before the test, and 30 minutes later, each mouse was put in the center of the field to conduct the test (peptide NLPPLT administration group, n=5). For five minutes after starting, the time of stay was recorded.
Moreover, as a control, the same test was conducted using male ddy mice to which the peptide as the test substance was not administered (control group, n=5-6).
From the obtained results, the proportions (%) of the time of stay were calculated as an indicator of the anxiolytic activity.

male ddy mice [3] = assay: Tail suspension test; details: for Immobile Time (second): 30 minutes before the test, control 88.9, *P<0.05 vs Control; for Immobile Time: control 99.0
Description: A tail suspension test used for screening an antidepressant was conducted. When a mouse is hung by fixing its tail and thus put under inescapable conditions, it is believed that the mouse first tries to escape and moves but becomes immobile by despair with the time. On the other hand, in a mouse treated with an antidepressant, the time of escaping behavior increases, and the immobile time decreases. That is, when the immobile time decreases, the drug is evaluated to have an antidepressive effect.
The WPH synthesized in Production Example 1 was administered at a dose of 1 mg, 10 mg or 100 mg per 1 kg body weight to male ddy mice 30 minutes before the test, and 30 minutes later, the mice were hung by fixing their tails to conduct the test (WPH administration group, n=9-11). For six minutes after starting, the time with immobile behavior was recorded.
Moreover, as a control, the same test was conducted using male ddy mice to which the peptide as the test substance was not administered (control group, n=9-11).
From the obtained results, the times (second) with immobile behavior were calculated as an indicator of the antidepressive activity.
The peptide NLPPLT synthesized in Production Example 2 was administered at a dose of 10 μg or 30 μg per 1 kg body weight to male ddy mice 30 minutes before the test, and 30 minutes later, the mice were hung by fixing their tails to conduct the test (peptide NLPPLT administration group, n=5-6). For six minutes after starting, the time with immobile behavior was recorded.
Moreover, as a control, the same test was conducted using male ddy mice to which the peptide as the test substance was not administered (control group, n=5-6). […]

Compound | Proportion (%) of Time of Stay on Open Arms (male ddy mice [1]; Table 2, peptide alone (dose not given; 10 μg/kg), control 20.9) [%] | Proportion (%) of Number of Entries into Open Arms (male ddy mice [1]; Table 2, peptide alone (dose not given; 10 μg/kg), control 26.7) [%] | Proportion (%) of Time of Stay on Open Arms (male ddy mice [1]; Table 3, 3 μg/kg, 30 minutes before the test, control 15.4) [%] | Proportion (%) of Number of Entries into Open Arms (male ddy mice [1]; Table 3, 3 μg/kg, 30 minutes before the test, control 22.7) [%] | Proportion (%) of Time of Stay on Open Arms (male ddy mice [1]; Table 3, 10 μg/kg, 30 minutes before the test, control 15.4) [%] | Proportion (%) of Number of Entries into Open Arms (male ddy mice [1]; Table 3, 10 μg/kg, 30 minutes before the test, control 22.7) [%] | Anxiolytic activity (time of stay on / entries into open arms compared to control) (male ddy mice [1]; conclusion in words) | Proportion (%) of Time of Stay in Center Circle (male ddy mice [2]; 0.01 mg/kg) [%] | Proportion (%) of Number of Entries into Center Circle (male ddy mice [2]; 0.01 mg/kg) [%] | Proportion (%) of Time of Stay in Center Circle (male ddy mice [2]; 0.03 mg/kg) [%] | Proportion (%) of Number of Entries into Center Circle (male ddy mice [2]; 0.03 mg/kg) [%] | Proportion (%) of Time of Stay in Center Circle (male ddy mice [2]; 0.1 mg/kg) [%] | Proportion (%) of Number of Entries into Center Circle (male ddy mice [2]; 0.1 mg/kg) [%] | Anxiolytic activity (time of stay in center compared to control) (male ddy mice [2]; conclusion in words) | Immobile Time (second) (male ddy mice [3]; Table 6, 0.01 mg/kg) | Immobile Time (second) (male ddy mice [3]; Table 6, 0.03 mg/kg) | Immobile Time (male ddy mice [3]; Table 7, NLPPLT 0.01 mg/kg (p.o.) alone) [s] | Antidepressive activity (time with immobile behavior compared to control) (male ddy mice [3]; conclusion in words) | Immobile Time (male ddy mice [3]; Table 7, NBQX 10 mg/kg (i.p.) alone) [s]
NLPPLT [Peptide NLPPLT] | 33.1 | 35.1 | 19.9 | 23.4 | 24.4 | 31.7 | has an anxiolytic activity | 0.6 | 1.7 | 0.7 | 1.6 | 0.8 | 2.1 | has an anxiolytic activity | 15.7* second | 27.1* second | 23.0 | has an antidepressive activity | –
NS(=O)(=O)c1cccc2c1c([N+](=O)[O-])cc1nc(O)c(O)nc12 [AMPA Antagonist, NBQX, reference compound] | – | – | – | – | – | – | – | – | – | – | – | – | – | – | – | – | – | – | 69.8
